Columns and labels:
[1] = tested on: morphine/heroin seeking behaviour; assay: Extinction and reinstatement of morphine/heroin seeking, mouse intravenous operant self-administration; type: in vivo, C57B16/J mice; details: L-histidine 1 g/kg or 2 g/kg; mice
Description: L-Histidine solution: L-Histidine (Sigma, H-8000) at a 155.15 g/mol concentration in 0.34 M phosphoric acid is prepared as follows. 1.5 g L-histidine are dissolved in 12 ml of 0.34 M phosphoric acid to obtain a 0.8 M solution of L-histidine at approximately pH 6. pH is verified, and 0.1 g of NaCl added to a final concentration of 0.9%. Finally, the L-histidine solution is sterilized by filtration.
Animals: Male C57B16/J mice (Charles River, France) are housed individually in controlled laboratory conditions with the temperature maintained at 21±1° C., humidity at 55±10%, and light reversal cycle (light on at 20.00 h, light off at 08.00 h). Mice are tested during the dark phase of a light reversal cycle. Behavioural tests and animal care are conducted in accordance with the standard ethical guidelines (National Institutes of Health 1995; European Communities Directive 86/609 EEC) and the protocols are approved by the local ethical committee (CEEA-PRBB).
Apparatus: The self-administration experiments are conducted in mouse operant chambers (Model ENV-307A-CT, Medical Associates, Georgia, VT, USA). The experimental chambers are equipped with a house light, ventilator fan, drug infusion pump, liquid swivel with counterbalanced arm, and two manipulanda with cue lights that are located on either side of a food dipper. The manipulanda are holes (1.2 cm diameter).
The chambers are housed in sound- and light-attenuated boxes equipped with fans to provide ventilation and white noise. […]
The catheter tubing is inserted 1.3 cm into the right jugular vein and anchored with suture. […] The patency of intravenous catheters is evaluated periodically (approximately every 6 days). Patency is also evaluated whenever drug self-administration behavior appears to deviate dramatically from that observed previously. […]
L-Histidine dosage: The first L-histidine dose is 1 g/kg. […] Dosage for other H3 histaminergic agonists or H3 histaminergic agonist precursors is determined considering the pharmacokinetic and toxicological characteristics of the compound. […]

[2] = tested on: alcohol-seeking responses (craving); assay: Cue-induced reinstatement of ethanol-seeking behavior; type: in vivo, rat; details: L-histidine acute injection; rats
Description: The goal of this study is to evaluate the effects of a H3 histaminergic ligand, such as L-histidine, in a gold-standard model in the alcohol field. Namely, cue-induced reinstatement of alcohol-seeking behavior in order to measure alcohol-seeking responses (craving).
Priming and cue-induced reinstatement of ethanol-seeking behavior: Rats are trained to self-administer 10% (v/v) ethanol in a single 30 minute daily session on a Fixed Ratio 1 (FR 1) schedule. During the first three days of training, responses at the left lever are reinforced by delivery of 0.2% (w/v) saccharin solution. Following acquisition of saccharin-reinforced responding, rats are trained to self-administer ethanol. Thus, rats have access to 0.2% saccharin with 5% ethanol for one day, 5% ethanol for 1 day, 0.2% saccharin with 8% ethanol for 1 day, 8% ethanol for 1 day, 0.2% saccharin with 10% ethanol for 1 day, and 10% ethanol for 1 day. During all the training phase, responses at the right lever result in the delivery of a drop of water.
During the conditioning phase, animals are trained to discriminate the availability of ethanol (reward) vs. water (non-reward). This phase starts after completion of the saccharin-fading procedure. […] The 5 second period serves as “time-out” during which responses are recorded but not reinforced. […]

## N[C@@H](Cc1c[nH]cn1)C(=O)O [L-histidine]
[1]
  cue-induced reinstatement of morphine/heroine seeking: decreases cue-induced reinstatement
  number of sessions required to achieve extinction criteria (morphine/heroin): shortens the number of sessions
  responding during the first extinction session (morphine/heroin): decreases or delays responding
[2]
  alcohol seeking (craving) induced by cues: decreases alcohol seeking
